# Source: patent publication US9737545B2 (MERCK SHARP & DOHME CORP., priority 2013, dated 2017)
# Target: T1, wildtype HIV-1 protease (Human immunodeficiency virus type 1 group M subtype B, UniProt P04585)
# T1 construct: preincubated with the HIV-1 protease (wild type) enzyme in assay buffer; made in house; host or cells: Escherichia coli
# Assay: Assay for Inhibition of Microbial Expressed HIV Protease (Pepcleav)
# Assay type: biochemical
# Procedure: Assay for Inhibition of Microbial Expressed HIV Protease (“Pepcleav”)
# Studies of the inhibition of the wildtype HIV-1 protease (which was expressed in Escherichia coli) were carried out with a peptide substrate [Val-Ser-Gln-Asn-(βnaphthyl)Ala-Pro-Ile-Val (SEQ ID NO: 1)]. The inhibitor was first preincubated with the HIV-1 protease (wild type) enzyme in assay buffer (50 mM sodium acetate, pH 5.5, 100 mM NaCl, and 0.1% BSA) for 30 minutes at room temperature. Substrate was added to 400 micromolar in a total volume of 20 microliters containing 20 picomolar HIV-1 protease (final) and the reaction was incubated for 1 hour at 30° C. The reaction was quenched with the addition of formic acid and indinavir to 0.012% and 150 nM final concentrations, respectively. The product formation was determined after separation of product and substrate on a Zorbax Eclipse XDB-C18 column connected to an API 4000 mass spectrometer (Applied Biosystems) with multiple reaction monitoring (transitions were 644.5/428.9 and 615.4/422.2 (M1/M3) for product and indinavir respectively). The extent of inhibition of the reaction was determined from the peak area of the products. Analysis of the products, independently synthesized, provided quantitation standards and confirmation of the product composition.
row,SMILES,IC50
1,"COC(=O)N[C@H](C(=O)Nc1ccccc1CC[C@@H]1CN[C@H](c2cc3cc(C)ccc3[nH]2)CO1)C(c1ccccc1)c1ccccc1 [Example 54, Nα-(methoxycarbonyl)-N-(2-{2-[(2R,5R)-5-(5-methyl-1H-indol-2-yl)morpholin-2-yl]ethyl}phenyl)-β-phenyl-L-phenylalaninamide]",143 nM
2,COC(=O)N[C@H](C(=O)Nc1ccccc1CC[C@@H]1CN[C@H](c2cc3cc(C(F)(F)F)ccc3[nH]2)CO1)C(c1ccccc1)c1ccccc1 [Example 55],152 nM
3,"COC(=O)N[C@H](C(=O)Nc1ccccc1CC[C@@H]1CN[C@H](c2cc3cc(OC)ccc3[nH]2)CO1)C(c1ccccc1)c1ccccc1 [Example 56, Nα-(methoxycarbonyl)-N-(2-{2-[(2R,5R)-5-(5-methoxy-1H-indol-2-yl)morpholin-2-yl]ethyl}phenyl)-β-phenyl-L-phenylalaninamide]",98.3 nM
4,"COC(=O)N[C@H](C(=O)Nc1ccccc1CC[C@@H]1CN[C@H](c2cc3cc(Cl)ccc3[nH]2)CO1)C(c1ccccc1)c1ccccc1 [Example 57, N-(2-{2-[(2R,5R)-5-(5-chloro-1H-indol-2-yl)morpholin-2-yl]ethyl}phenyl)-Nα-(methoxycarbonyl)-β-phenyl-L-phenylalaninamide]",70.2 nM
5,"COC(=O)N[C@H](C(=O)Nc1ccccc1CC[C@@H]1CN[C@H](c2cc3ccc(Cl)cc3[nH]2)CO1)C(c1ccccc1)c1ccccc1 [Example 58, N-(2-{2-[(2R,5R)-5-(6-chloro-1H-indol-2-yl)morpholin-2-yl]ethyl}phenyl)-Nα-(methoxycarbonyl)-β-phenyl-L-phenylalaninamide]",76.2 nM
6,"COC(=O)N[C@H](C(=O)Nc1ccccc1CC[C@@H]1CN[C@H](c2cc3cccc(Cl)c3[nH]2)CO1)C(c1ccccc1)c1ccccc1 [Example 59, N-(2-{2-[(2R,5R)-5-(7-chloro-1H-indol-2-yl)morpholin-2-yl]ethyl}phenyl)-Nα-(methoxycarbonyl)-β-phenyl-L-phenylalaninamide]",96.4 nM
7,"COC(=O)N[C@H](C(=O)Nc1ccccc1CC[C@@H]1CN[C@H](c2cc3c(Cl)cccc3[nH]2)CO1)C(c1ccccc1)c1ccccc1 [Example 60, N-(2-{2-[(2R,5R)-5-(4-chloro-1H-indol-2-yl)morpholin-2-yl]ethyl}phenyl)-Nα-(methoxycarbonyl)-β-phenyl-L-phenylalaninamide]",88.6 nM
8,"COC(=O)N[C@H](C(=O)Nc1ccccc1CC[C@@H]1CN[C@H](c2cc3cnccc3[nH]2)CO1)C(c1ccccc1)c1ccccc1 [Example 61, Nα-(methoxycarbonyl)-β-phenyl-N-(2-{2-[(2R,5R)-5-(1H-pyrrolo[3,2-c]pyridin-2-yl)morpholin-2-yl]ethyl}phenyl)-L-phenylalaninamide]",550 nM
9,"COC(=O)N[C@H](C(=O)Nc1ccccc1CC[C@@H]1CN[C@H](c2cc3cccnc3[nH]2)CO1)C(c1ccccc1)c1ccccc1 [Example 62, Nα-(methoxycarbonyl)-β-phenyl-N-(2-{2-[(2R,5R)-5-(1H-pyrrolo[2,3-b]pyridin-2-yl)morpholin-2-yl]ethyl}phenyl)-L-phenylalaninamide]",156 nM
10,"O=C(C[C@H](c1ccccc1)c1ccc(F)cc1)Nc1cncc(F)c1CC[C@@H]1CN[C@H](c2nc3cc(F)c(F)cc3[nH]2)CO1 [Example 70, (3R)—N-(4-{2-[(2R,5R)-5-(5,6-difluoro-1H-benzimidazol-2-yl)morpholin-2-yl]ethyl}-5-fluoropyridin-3-yl)-3-(4-fluorophenyl)-3-phenylpropanamide]",0.01 nM
11,"O=C(C[C@H](c1ccccc1)c1ccc(F)cc1)Nc1cncc(F)c1CC[C@@H]1CN[C@H](c2nc3ccccc3[nH]2)CO1 [Example 71, (3R)—N-(4-{2-[(2R,5R)-5-(1H-benzimidazol-2-yl)morpholin-2-yl]ethyl}-5-fluoropyridin-3-yl)-3-(4-fluorophenyl)-3-phenylpropanamide]",0.01 nM
12,"COC(=O)N[C@H](C(=O)Nc1cncc(F)c1CC[C@@H]1CN[C@H](c2nc3ccccc3[nH]2)CO1)C(c1ccc(F)cc1)c1ccc(F)cc1 [Example 72, N-(4-{2-[(2R,5R)-5-(1H-benzimidazol-2-yl)morpholin-2-yl]ethyl}-5-fluoropyridin-3-yl)-4-fluoro-β-(4-fluorophenyl)-Nα-(methoxycarbonyl)-L-phenylalaninamide]",0.01 nM
13,"O=C(C[C@@H](c1ccc(F)cc1)c1ccncc1F)Nc1cccc(F)c1CC[C@@H]1CN[C@H](c2nc3ccccc3[nH]2)CO1 [Example 73, (3S)—N-(2-{2-[(2R,5R)-5-(1H-benzimidazol-2-yl)morpholin-2-yl]ethyl}-3-fluorophenyl)-3-(4-fluorophenyl)-3-(3-fluoropyridin-4-yl)propanamide]",0.01 nM
14,"N[C@H](C(=O)Nc1cncc(F)c1CC[C@@H]1CN[C@H](c2nc3cc(F)c(F)cc3[nH]2)CO1)C(c1ccc(F)cc1)c1ccc(F)cc1 [Example 75, N-(4-{2-[(2R,5R)-5-(5,6-difluoro-1H-benzimidazol-2-yl)morpholin-2-yl]ethyl}-5-fluoropyridin-3-yl)-4-fluoro-β-(4-fluorophenyl)-L-phenylalaninamide]",0.01 nM
15,"COC(=O)N[C@H](C(=O)Nc1cncc(F)c1CC[C@@H]1CN[C@H](c2nc3cc(F)c(F)cc3[nH]2)CO1)C(c1ccc(F)cc1)c1ccc(F)cc1 [Example 76, N-(4-{2-[(2R,5R)-5-(5,6-difluoro-1H-benzimidazol-2-yl)morpholin-2-yl]ethyl}-5-fluoropyridin-3-yl)-4-fluoro-β-(4-fluorophenyl)-Nα-(methoxycarbonyl)-L-phenylalaninamide]",0.02 nM
16,"COC(=O)N[C@H](C(=O)Nc1ccccc1CC[C@@H]1CN[C@H](c2nnn[nH]2)CO1)C(c1ccccc1)c1ccccc1 [Example 77, Nα-(methoxycarbonyl)-β-phenyl-N-(2-{2-[(2R,5R)-5-(1H-tetrazol-5-yl)morpholin-2-yl]ethyl}phenyl)-L-phenylalaninamide]",3.5 nM
17,COC(=O)N[C@H](C(=O)Nc1ccccc1CC[C@@H]1CN[C@H](c2nnc(Cc3ccccc3)o2)CO1)C(c1ccccc1)c1ccccc1 [Example 78],62 nM
18,COC(=O)N[C@H](C(=O)Nc1ccccc1CC[C@@H]1CN[C@H](c2nnc(-c3ccc(F)cc3)o2)CO1)C(c1ccccc1)c1ccccc1 [Example 79],59 nM
19,COC(=O)N[C@H](C(=O)Nc1ccccc1CC[C@@H]1CN[C@H](c2nnc(C)o2)CO1)C(c1ccccc1)c1ccccc1 [Example 80],220 nM
20,COC(=O)N[C@H](C(=O)Nc1ccccc1CC[C@@H]1CN[C@H](c2nnc(Cc3ccccc3)[nH]2)CO1)C(c1ccccc1)c1ccccc1 [Example 81],2.8 nM
21,COC(=O)N[C@H](C(=O)Nc1ccccc1CC[C@@H]1CN[C@H](c2nnco2)CO1)C(c1ccccc1)c1ccccc1 [Example 82],280 nM
22,COC(=O)N[C@H](C(=O)Nc1ccccc1CC[C@@H]1CN[C@H](c2csc(C)n2)CO1)C(c1ccccc1)c1ccccc1 [Example 83],89 nM
23,COC(=O)N[C@H](C(=O)Nc1ccccc1CC[C@@H]1CN[C@H](c2csc(Cc3ccccc3)n2)CO1)C(c1ccccc1)c1ccccc1 [Example 84],150 nM
24,COC(=O)N[C@H](C(=O)Nc1ccccc1CC[C@@H]1CN[C@H](c2nc3cc(Cl)c(Cl)cc3[nH]2)CO1)C(c1ccccc1)c1ccccc1 [Example 85],0.4 nM
25,COC(=O)N[C@H](C(=O)Nc1ccccc1CC[C@@H]1CN[C@H](c2ncc[nH]2)CO1)C(c1ccccc1)c1ccccc1 [Example 86],1.8 nM
26,"COC(=O)N[C@H](C(=O)Nc1ccccc1CC[C@@H]1CN[C@H](c2ncc[nH]2)[C@@H](CSc2nnc(-c3ccncc3)o2)O1)C(c1ccccc1)c1ccccc1 [Example 87, N-(2-{2-[(2R,5R)-(1H-imidazol-2-yl)-6-{[(5-pyridin 4-yl-1,3,4-oxadiazol-2-yl)sulfanyl]methyl}morpholin-2-yl]ethyl}phenyl)-Nalpha-(methoxycarbonyl)-β-phenyl-L-phenylalaninamide]",0.6 nM
27,COC(=O)N[C@H](C(=O)Nc1ccccc1CC[C@@H]1CN[C@H](c2cn(C)c(=O)[nH]2)CO1)C(c1ccccc1)c1ccccc1 [Example 88],310 nM
28,COC(=O)N[C@H](C(=O)Nc1ccccc1CC[C@@H]1CN[C@H](c2nc3ccc(O)nc3[nH]2)CO1)C(c1ccccc1)c1ccccc1 [Example 89],150 nM
29,"COC(=O)N[C@H](C(=O)Nc1ccccc1CC[C@@H]1CN[C@H](c2[nH]c3ccccc3c2C=[N+](C)C)CO1)C(c1ccccc1)c1ccccc1 [Example 90, N-[(2-{(3R,6R)-6-[2-(2-{[N-(methoxycarbonyl)-β-phenyl-L-phenylalanyl]amino}phenyl)ethyl]morpholin-3-yl}-1H-indol-3-yl)methylidene]-N-methylmethanaminium]",68 nM
30,"Cc1cc2nc([C@@H]3CO[C@H](CCc4c(F)cncc4NC(=O)[C@@H](N)C(c4ccc(F)cc4)c4ccc(F)cc4)CN3)[nH]c2cc1C [Example 92, N-(4-{2-[(2R,5R)-5-(5,6-dimethyl-1H-benzimidazol 2-yl)morpholin-2-yl]ethyl}-5-fluoropyridin-3-yl)-4-fluoro-β-(4-fluorophenyl)-L-phenylalaninamide]",0.06 nM
